In US20040235798A1, “Compositions and methods for inhibiting prenyltransferases” (priority 2001, published 2004):

Legend:
[1] = biological target: T1, fungal N-myristoyltransferase (Candida albicans, UniProt P30418); details: cited from earlier work
T1 sequence (P30418 1-451): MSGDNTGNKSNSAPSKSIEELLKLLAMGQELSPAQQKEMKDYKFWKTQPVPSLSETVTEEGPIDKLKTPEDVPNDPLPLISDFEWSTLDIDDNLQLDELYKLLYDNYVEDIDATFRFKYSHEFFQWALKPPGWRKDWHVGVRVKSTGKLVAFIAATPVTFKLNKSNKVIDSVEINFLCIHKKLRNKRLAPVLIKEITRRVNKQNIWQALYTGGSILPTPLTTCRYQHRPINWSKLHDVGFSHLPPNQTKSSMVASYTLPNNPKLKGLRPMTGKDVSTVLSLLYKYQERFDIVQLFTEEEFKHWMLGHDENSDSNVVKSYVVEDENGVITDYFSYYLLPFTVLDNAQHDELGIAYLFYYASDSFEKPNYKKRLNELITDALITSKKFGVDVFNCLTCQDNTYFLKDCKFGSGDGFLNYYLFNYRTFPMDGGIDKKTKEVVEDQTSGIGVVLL

C. albicans [2] = experiment: In vitro susceptibility testing of compounds in C. albicans (MIC); type: cell-based; details: concentration where no visible growth is observed, 35° C., read at 24 hr and 48 hr; for MIC: Candida albicans, read-out: C. alb MIC
Procedure: (ii) In vitro Susceptibility Testing of Compounds in C. albicans […] Innoculate strain C. albicans strain such as SC5314 into 20 mL of the appropriate medium and incubate at 35° C. with shaking (220 rpm) overnight 2: Count the C. albicans cells in a 1:10 dilution of the overnight culture using a haemocytometer. 3: Work out the dilution factor required to bring the cell number to 1×10^3 cells/100 μL (equivalent to 1×10^4 cells/mL) then add the required volume of the overnight culture to 25 mL media in a falcon tube. 4: Vortex the diluted cells and immediately pipette 100 μL of the cell suspension to each of the required rows of a 96 well plate using the multipipettor 5: Prepare each of the 100× stock solutions for the compounds to be tested in DMSO in the required concentration range in Eppendorf tubes. 6: The dilution series for each of the compounds may now be prepared in sequence: For each compound—start with highest dilution. Add 10 μL compound in DMSO to the 490 μL of appropriate media. Immediately vortex and add 100 μL to the appropriate row of cells on the 96-well plate. Repeat this process for the next and subsequent concentrations of this compound before starting on the dilution series for additional compounds. 7: When complete cover the 96-well plate with an acetate sheet and incubate at 35° C. Inspect visually and record results for both plates at 24 hr and 48 hr. The MIC corresponds to the concentration of compound where no visible growth is observed.

C. albicans [3] = experiment: Determination of minimum fungicidal concentrations (MFC); type: cell-based; details: concentration where no cellular growth is observed on the plate after plating out MIC wells; for MFC: Candida albicans, read-out: C. alb MFC
Procedure: (iii) Determination of Minimum Fungicidal Concentrations (MFC) After the required time course for the MIC determination, the minimum fungicidal concentration can then be determined by plating out the entire contents of the well of the microtitre plates onto YPD or Sabourand plates. These plates are then incubated at 35° C. for 24-48 hrs. The MFC corresponds to the concentration of compound where no cellular growth is observed on the plate.

C. albicans GGPTase = C. albicans GGPTase (Candida albicans, UniProt Q8J224+Q9Y764); experiment: Assay protocol for determining IC50 of fungal GGPTase inhibitors (3H-GGPP, FlashPlate); type: biochemical; details: 2 nM C. albicans GGPTase, 250 nM 3H-GGPP, 250 nM C. albicans Rho; read-out: CaGGTase
Procedure: (i) Assay Protocol for Determining IC50
Plate test compounds (10 μL per well) at predetermined concentration in 50% DMSO. For background control (blank) and reaction control (negative), add 10 μL of 200 μM GGPP and 10 μL 50% DMSO, respectively. Prepare assay buffer: 50 mM Tris, pH7.5, 20 mM KCL, 5 mM MgCl2, 5 μM ZnCl2, 0.5 mM Zw(3-14), 2 mM DTT and 0.1 mg/mL BSA.
Add 20 μL of C. albicans GGPTase and ^3H-GGPP in assay buffer to test compound. Preincubate enzyme and ^3H-GGPP with test compound for 15 minutes at room temperature. Add 20 μL C. albicans Rho in assay buffer. Incubate for 30 minutes at room temperature. Final assay conditions are 2 nM C. albicans GGPTase, 250 nM ^3H-GGPP and 250 nM C. albicans Rho.
Add 100 μL 15 mM GGPP, 50 mM Tris, pH 7.0 and 2% BSA to quench reaction. Transfer reaction to Nickel chelate FlashPlate. Allow his-tagged C. albcians Rho to capture onto plate. Rinse plate 1× with 200 μL 20 mM Tris, pH 7.0. Read in TOPCOUNT.

CAK1 = CAK1 (Candida albicans, UniProt A0A1D8PH53); experiment: CAK1 inhibition, time-resolved fluorescence (FRET) kinase assay with biotin-his-cdk2 substrate; type: biochemical; details: 10 nM his-CAK1, 20 μM ATP, 30 min room temperature
Procedure: The following protocol was used for measuring CAK1 inhibition by test compounds:
A compound plate was pre-made with 20 μg/ml compound dissolved in 100% DMSO in each well of a 384-well plate (polypropylene, Coming cat # 29445-136), except for two control columns, wherein each well contained 100% DMSO.
A substrate plate was prepared by adding a pre-determined volume of substrate solution (925 nM biotin-his-cdk2 in reaction buffer) into each well of a 96-well deep-well plate (Beckman cat. 267006). To the control wells of the plate, 1/20 vol. of positive control and blank solutions were added according to the plate map. Positive control solutions are Olomoucine (MTX-277859) at 0.25, 0.75, 2.25, 6.75 mM, respectively, in DMSO, and blank solution is 50 mM EDTA in reaction buffer (50 mM Tris-HCl (pH 7.5), 50 mM NaCl, 0.1 mg/mL BSA, 100 μM MgCl2).
The reaction plate (384-well polystyrene black, Packard Opti plate, Cat.# 6005256) was loaded with a volume of 2.0 μL of samples from the compound plate and 8.0 μL of substrate solution from the substrate plate. 10 μl of enzyme solution (10 nM his-CAK1, 20 μM ATP in reaction buffer) was added to start the reaction. The plate was covered with a lid and incubated at room temperature for 30 min.
10 μl of FRET solution (45 nM streptavidin-APC*, 30 nM Europium-Ab, 3 mM EDTA in reaction buffer) was added to each of the wells of the reaction plate to stop the reaction. The time-resolved fluorescence was measured on a Wallac Victor fluorometer (excitation 340 nm, emission 665 nm, delay time 100 μs, window time 100 μs).

C. albicans GGPTase, sequence (Q9Y764 entry or part of it): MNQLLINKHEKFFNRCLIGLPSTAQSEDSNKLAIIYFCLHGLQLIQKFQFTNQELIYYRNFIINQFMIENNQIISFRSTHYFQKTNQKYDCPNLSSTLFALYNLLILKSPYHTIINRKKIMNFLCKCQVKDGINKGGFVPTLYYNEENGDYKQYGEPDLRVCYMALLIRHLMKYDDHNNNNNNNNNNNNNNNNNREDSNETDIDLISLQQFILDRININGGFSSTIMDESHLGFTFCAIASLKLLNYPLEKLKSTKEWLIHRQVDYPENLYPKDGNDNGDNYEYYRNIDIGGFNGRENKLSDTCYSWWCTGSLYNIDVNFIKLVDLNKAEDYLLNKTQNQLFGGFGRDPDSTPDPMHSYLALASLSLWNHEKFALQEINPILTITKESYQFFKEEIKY
C. albicans GGPTase, sequence (Q8J224 entry or part of it): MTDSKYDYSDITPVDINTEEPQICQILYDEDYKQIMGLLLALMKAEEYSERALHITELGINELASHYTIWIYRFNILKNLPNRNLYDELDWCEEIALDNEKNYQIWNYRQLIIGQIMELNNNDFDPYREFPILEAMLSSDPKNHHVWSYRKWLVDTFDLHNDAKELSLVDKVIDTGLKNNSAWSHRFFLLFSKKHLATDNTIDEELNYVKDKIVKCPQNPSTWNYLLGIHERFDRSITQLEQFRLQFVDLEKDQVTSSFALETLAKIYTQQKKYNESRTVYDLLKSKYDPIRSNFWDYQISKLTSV
CAK1, sequence (A0A1D8PH53 entry or part of it): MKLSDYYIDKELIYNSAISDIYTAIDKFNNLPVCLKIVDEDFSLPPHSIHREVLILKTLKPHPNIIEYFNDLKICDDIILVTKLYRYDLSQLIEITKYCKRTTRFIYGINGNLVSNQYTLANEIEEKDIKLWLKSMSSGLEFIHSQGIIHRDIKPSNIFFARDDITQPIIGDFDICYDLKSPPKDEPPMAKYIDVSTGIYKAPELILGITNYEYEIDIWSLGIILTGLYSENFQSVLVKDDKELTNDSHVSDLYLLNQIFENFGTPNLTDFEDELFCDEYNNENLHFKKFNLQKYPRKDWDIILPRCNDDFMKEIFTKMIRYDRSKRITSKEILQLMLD

| MIC (C. albicans [2]) | IC50 (C. albicans GGPTase) | IC50 (CAK1) | SMILES | MFC (C. albicans [3]) | also measured |
| --- | --- | --- | --- | --- | --- |
| – | – | – | CN(C)C(=O)c1ccc2nc(NC(=O)[C@H]3CC[C@@H](CN)CC3)sc2c1 | – | inhibitor of fungal N-myristoyltransferase [1]: potent inhibitor |
| < 10 µg/mL | < 100 nM | – | Cn1cncc1CN1CCN(C(=O)N(Cc2cccc(Cl)c2)Cc2cccc(Cl)c2)CC1C(=O)NC[C@H]1CO[C@](Cn2ccnc2)(c2ccc(Cl)cc2Cl)O1 (stereo partly shown) [Compound 1] | < 10 µg/mL | – |
| < 10 µg/mL | < 100 nM | – | C[C@H](NC(=O)C1CN(C(=O)N(Cc2cccc(Cl)c2)Cc2cccc(Cl)c2)CCN1Cc1cncn1C)[C@](O)(Cn1cncn1)c1ccc(F)cc1F (stereo partly shown) [Compound 2] | < 10 µg/mL | – |
| < 10 µg/mL | < 100 nM | – | Cn1cncc1CN(CC(=O)NC[C@@H]1CO[C@@](Cn2ccnc2)(c2ccc(Cl)cc2Cl)O1)C1CCN(C(=O)N(Cc2cccc(Cl)c2)Cc2cccc(Cl)c2)CC1 [Compound 4] | < 10 µg/mL | – |
| < 10 µg/mL | < 100 nM | – | Cn1cncc1CN(C[C@@H]1CO[C@@](Cn2ccnc2)(c2ccc(Cl)cc2Cl)O1)C1CCN(C(=O)N(Cc2cccc(Cl)c2)Cc2cccc(Cl)c2)CC1 [Compound 5] | < 10 µg/mL | – |
| < 10 µg/mL | < 100 nM | – | Cn1cncc1CN1CCN(C(=O)N(Cc2cccc(Cl)c2)Cc2cccc(Cl)c2)C[C@@H]1CNC1CO[C@@](Cn2cncn2)(c2ccc(Cl)cc2Cl)O1 (stereo partly shown) [Compound 8] | < 10 µg/mL | – |
| – | – | – | Cn1cncc1CN1CCN(C(=O)N(Cc2cccc(Cl)c2)Cc2cccc(Cl)c2)C[C@@H]1CNC1CO[C@@](Cn2cncn2)(c2ccc(Cl)cc2Cl)O1 (stereo partly shown) [Compound 9] | – | C. alb MIC (C. albicans [2]): <10 µg/mL; C. alb MFC (C. albicans [3]): <10 µg/mL |
| < 10 µg/mL | < 100 nM | – | Cn1cncc1CN1CCN(C(=O)N(Cc2cccc(Cl)c2)Cc2cccc(Cl)c2)C[C@@H]1C(=O)NC[C@@H]1CO[C@@](Cn2cncn2)(c2ccc(Cl)cc2Cl)O1 [Compound 10] | < 10 µg/mL | – |
| < 10 µg/mL | < 100 nM | – | Cn1cncc1CN1CCN(C(=O)N(Cc2cccc(Cl)c2)Cc2cccc(Cl)c2)C[C@@H]1C(=O)NC[C@H]1CO[C@](Cn2ccnc2)(c2ccc(Cl)cc2Cl)O1 [Compound 11] | < 10 µg/mL | – |
| – | – | – | Cn1cncc1CN1CCN(C(=O)N(Cc2cccc(Cl)c2)Cc2cccc(Cl)c2)C[C@@H]1C(=O)NC[C@H]1CO[C@](Cn2ccnc2)(c2ccc(Cl)cc2Cl)O1 [Compound 12] | – | C. alb MIC (C. albicans [2]): <10 µg/mL; C. alb MFC (C. albicans [3]): <10 µg/mL |
| < 10 µg/mL | < 100 nM | – | Cn1cncc1CN1CCN(C(=O)N(Cc2cccc(Cl)c2)Cc2cccc(Cl)c2)C[C@@H]1C(=O)NC[C@@H]1CO[C@@](Cn2ccnc2)(c2ccc(Cl)cc2Cl)O1 [Compound 13] | < 10 µg/mL | – |
| < 10 µg/mL | < 100 nM | – | Cn1cncc1CN1CCN(C(=O)N(Cc2cccc(Cl)c2)Cc2cccc(Cl)c2)C[C@H]1C(=O)NC[C@@H]1CO[C@@](Cn2ccnc2)(c2ccc(Cl)cc2Cl)O1 [Compound 14] | < 10 µg/mL | – |
| < 10 µg/mL | < 100 nM | – | C[C@@H](c1nc([C@H]2CN(C(=O)N(Cc3cccc(Cl)c3)Cc3cccc(Cl)c3)CCN2Cc2cncn2C)cs1)[C@@](O)(c1ccc(F)cc1F)n1cncn1 [Compound 15] | < 10 µg/mL | – |
| < 10 µg/mL | < 100 nM | – | C[C@@H](c1nc(CN(Cc2cncn2C)[C@H]2CCN(C(=O)N(Cc3cccc(Cl)c3)Cc3cccc(Cl)c3)C2)cs1)[C@@](O)(c1ccc(F)cc1F)n1cncn1 [Compound 16] | < 10 µg/mL | – |
| – | – | < 50 µM | Cc1onc(-c2c(Cl)cccc2Cl)c1C(=O)Nc1cccc(-c2ncon2)c1 [Compound 101] | – | – |
| – | – | < 10 µM | O=C(CSc1ccccn1)c1ccc(OCc2ccc([N+](=O)O)cc2)cc1 [Compound 102] | – | – |
| – | – | < 50 µM | CCOC(=O)c1c(NC(=O)c2c(OC)cccc2OC)sc(C)c1C [Compound 103] | – | – |
| – | – | > 50 µM | CCOC(=O)c1c(NC(=O)c2c(OC)cccc2OC)sc2c1CCC(C)C2 (stereo not shown) [Compound 104] | – | – |
| – | – | < 50 µM | O=C1CCc2cc(C(=O)CSc3ccc(Cl)cc3Cl)ccc2N1 [Compound 105] | – | – |
| – | – | < 50 µM | CCOC(=O)C1=C(C)N(Cc2ccccc2)C(=O)NC1c1ccc(OC(F)(F)F)cc1 (stereo not shown) [Compound 106] | – | – |
| – | – | < 10 µM | O=C(c1ccccc1OCC1COC(Cn2ccnc2)(c2ccc(Cl)cc2Cl)O1)N(Cc1ccccc1)Cc1ccccc1 (stereo not shown) [Compound 107] | – | – |
| – | – | < 50 µM | O=C(c1cc(C(O)(Cn2ccnc2)c2ccccc2)ccc1-c1ccccc1)N(Cc1ccccc1)Cc1ccccc1 (stereo not shown) [Compound 108] | – | – |
